According to patent US6737383B1, “Herbicidal oxadiazolidines” (priority 1999, dated 2004):

Key:
[1] = test system: purple nutsedge; test: Test D purple nutsedge; format: in vivo, Cyperus rotundus; details: Preemergence, 0 to 100 scale
Method in brief: (§1)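 Scoring used a 0–100 visual injury scale, with 0 meaning no effect and 100 complete control, assessed 14–21 days after application alongside untreated pots. Preemergence treatments went onto sandy loam surfaces of separately potted seeds within a day of sowing.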

[2] = test system: guineagrass; test: Test D guineagrass; format: in vivo, Panicum maximum; details: Preemergence, 0 to 100 scale
Method in brief: as §1

[3] = test system: common pursiane; test: Test D common purslane; format: in vivo, Portulaca oleracea
Method in brief: as §1

[4] = test system: large crabgrass; test: Test D large crabgrass; format: in vivo, Digitaria sanguinalis; details: Preemergence, 0 to 100 scale
Method in brief: as §1

[5] = test system: Spanishneedles; test: Test D Spanishneedles; format: in vivo, Bidens bipinnata; details: Preemergence, 0 to 100 scale
Method in brief: as §1

[6] = test system: surinam grass; test: Test D surinam grass; format: in vivo, Brachiaria decumbens; details: Preemergence, 0 to 100 scale
Method in brief: as §1

[7] = test system: kochia; test: Test E kochia; format: in vivo, Kochia scoparia; details: Preemergence
[8] = test system: pitted morningglory; test: Test D pitted morningglory; format: in vivo, Ipomoea lacunosa; details: Preemergence, 0 to 100 scale
Method in brief: as §1

[9] = test system: itchgrass; test: Test D itchgrass; format: in vivo, Rottboellia exaltata; details: Preemergence, 0 to 100 scale
Method in brief: as §1

[10] = test system: Johnson grass; test: Test D Johnson grass; format: in vivo, Sorghum halepense; details: Preemergence, 0 to 100 scale
Method in brief: as §1

[11] = test system: Green foxtail; test: Test D green foxtail; format: in vivo; details: Preemergence, 0 to 100 scale
Method in brief: as §1

[12] = test system: Alexandergrass; test: Test D Alexandergrass; format: in vivo, Brachiaria plantaginea; details: Preemergence, 0 to 100 scale
Method in brief: as §1

[13] = test system: dallisgrass; test: Test D dallisgrass; format: in vivo, Paspalum dilatatum; details: Preemergence, 0 to 100 scale
Method in brief: as §1

[14] = test system: common ragweed; test: Test D common ragweed; format: in vivo, Ambrosia elatior; details: Preemergence, 0 to 100 scale
Method in brief: as §1

[15] = test system: tall mallow; test: Test D tall mallow; format: in vivo, Malva sylvestris; details: Preemergence, 0 to 100 scale
Method in brief: as §1

[16] = test system: bermuda-grass; test: Test D bermudagrass; format: in vivo, Cynodon dactylon; details: Preemergence, 0 to 100 scale
Method in brief: as §1

[17] = test system: chickweed; test: Test E chickweed; format: in vivo, Stellaria media; details: Preemergence
[18] = test system: sandbur; test: Test D sandbur; format: in vivo, Cenchrus echinatus; details: Preemergence, 0 to 100 scale
Method in brief: as §1

[19] = test system: common groundsel; test: Test D common groundsel; format: in vivo, Senecio vulgaris; details: Preemergence, 0 to 100 scale
Method in brief: as §1

[20] = Rate 16 g/ha, 0 no injury, 100 complete control
[21] = Rate 32 g/ha, 0 no injury, 100 complete control
[22] = Rate 64 g/ha, 0 no injury, 100 complete control
[23] = Rate 125 g/ha, 0 no injury, 100 complete control
[24] = Rate 125 g/ha, 0 to 100 scale (0 no effect, 100 complete control)
[25] = Rate 500 g/ha, 0 to 100 scale where 0 is no effect and 100 is complete control

CC(C)N(C(=O)n1oc(=O)n(C(C)C)c1=O)c1ccc(F)cc1 [Compound 131]
40: Purple nutsedge plant response rating [1, 22] | Spanishneedles plant response rating [5, 22] | Plant response rating Johnsongrass [10, 21]
85: Plant response rating, Purple nutsedge ([1]; Rate 250 g/ha) | Plant response rating, Purple nutsedge ([1]; Rate 500 g/ha) | Surinam grass plant response rating [6, 22] | Plant response rating, P. morninglory ([8]; Rate 250 g/ha) | Plant response rating, Dallisgrass [13, 20] | Sandbur plant response rating [18, 22] | Plant response rating, Com. groundsel [19, 22]
100: Plant response rating, Guineagrass [2, 21] | Plant response rating, Guineagrass [2, 22] | Plant response rating, Guineagrass [2, 23] | Plant response rating, Guineagrass ([2]; Rate 250 g/ha) | Plant response rating, Guineagrass ([2]; Rate 500 g/ha) | Plant response rating, C. purslane ([3]; Rate 500 g/ha, Preemergence; 0 to 100 scale) | Plant response rating Large crabgrass [4, 20] | Plant response rating Large crabgrass [4, 21] | Plant response rating Large crabgrass [4, 22] | Plant response rating Large crabgrass [4, 23] | Plant response rating Large crabgrass ([4]; Rate 250 g/ha) | Plant response rating Large crabgrass ([4]; Rate 500 g/ha) | Surinam grass plant response rating [6, 23] | Plant response rating, Surinam grass ([6]; Rate 250 g/ha) | Plant response rating, Surinam grass ([6]; Rate 500 g/ha) | Plant response rating, Kochia [7, 25] | Plant response rating, P. morninglory ([8]; Rate 500 g/ha) | Plant response rating, Itchgrass ([9]; Rate 250 g/ha) | Plant response rating, Itchgrass ([9]; Rate 500 g/ha) | Plant response rating Johnsongrass ([10]; Rate 500 g/ha) | Plant response rating, Green foxtail ([11]; Rate 250 g/ha) | Plant response rating, Green foxtail ([11]; Rate 500 g/ha) | Plant response rating, Alexandergrass [12, 23] | Plant response rating, Alexandergrass ([12]; Rate 250 g/ha) | Plant response rating, Alexandergrass ([12]; Rate 500 g/ha) | Plant response rating, Dallisgrass [13, 22] | Plant response rating, Dallisgrass [13, 23] | Plant response rating, Dallisgrass ([13]; Rate 250 g/ha) | Plant response rating, Dallisgrass ([13]; Rate 500 g/ha) | Plant response rating, C. ragweed ([14]; Rate 250 g/ha) | Plant response rating, C. ragweed ([14]; Rate 500 g/ha) | Plant response rating, Tall Mallow ([15]; Rate 500 g/ha) | Plant response rating, Bermudagrass [16, 20] | Plant response rating, Bermudagrass [16, 21] | Plant response rating, Bermudagrass [16, 22] | Plant response rating, Bermudagrass [16, 23] | Plant response rating, Bermudagrass ([16]; Rate 250 g/ha) | Plant response rating, Bermudagrass ([16]; Rate 500 g/ha) | Plant response rating, Chickweed [17, 24] | Chickweed plant response rating (0 to 100 scale) ([17]; Rate 250 g/ha) | Plant response rating, Chickweed [17, 25] | Sandbur plant response rating [18, 23] | Plant response rating, Sandbur ([18]; Rate 250 g/ha) | Plant response rating, Sandbur ([18]; Rate 500 g/ha) | Plant response rating, Com. groundsel [19, 23] | Plant response rating, Com. groundsel ([19]; Rate 250 g/ha) | Plant response rating, Com. groundsel ([19]; Rate 500 g/ha)
65: Plant response rating Johnsongrass [10, 22]
75: Plant response rating, Surinam grass [6, 21] | Plant response rating, Com. groundsel [19, 20] | Plant response rating, Com. groundsel [19, 21]
60: Purple nutsedge plant response rating [1, 23] | Spanishneedles plant response rating [5, 23] | Plant response rating, Sandbur [18, 21]
20: Plant response rating, Surinam grass [6, 20] | Plant response rating, Alexandergrass [12, 20]
95: Plant response rating, Dallisgrass [13, 21]
90: Plant response rating, Spanishneedles ([5]; Rate 500 g/ha) | Plant response rating, Itchgrass [9, 22] | Plant response rating, Itchgrass [9, 23] | Plant response rating Johnsongrass [10, 23] | Plant response rating, Alexandergrass [12, 21] | Plant response rating, Tall Mallow ([15]; Rate 250 g/ha)
80: Tall Mallow plant response rating [15, 22] | Tall Mallow plant response rating [15, 23]
50: Plant response rating, P. morninglory [8, 23] | Plant response rating, Itchgrass [9, 21]
30: Plant response rating, Itchgrass [9, 20] | Plant response rating, C. ragweed [14, 22] | Plant response rating, C. ragweed [14, 23] | Plant response rating, Tall Mallow [15, 20] | Plant response rating, Tall Mallow [15, 21]
98: Plant response rating Johnsongrass ([10]; Rate 250 g/ha) | Plant response rating, Alexandergrass [12, 22]
10: Plant response rating, C. purslane ([3]; Rate 250 g/ha; Preemergence; 0 to 100 scale) | Plant response rating, C. purslane ([3]; Rate 500 g/ha; Preemergence; 0 to 100 scale) | Kochia plant response rating (0 to 100 scale) ([7]; Rate 250 g/ha) | Plant response rating Johnsongrass [10, 20]
0: Plant response rating, Purple nutsedge [1, 20] | Plant response rating, Purple nutsedge [1, 21] | Plant response rating, Guineagrass [2, 20] | Plant response rating, C. purslane ([3]; Rate 16 g/ha; Preemergence; 0 to 100 scale, 0 no injury, 100 complete control) | Plant response rating, C. purslane ([3]; Rate 32 g/ha; Preemergence; 0 to 100 scale, 0 no injury, 100 complete control) | Plant response rating, C. purslane ([3]; Rate 64 g/ha, Preemergence; 0 to 100 scale, 0 no injury, 100 complete control) | Plant response rating, C. purslane ([3]; Rate 125 g/ha, Preemergence; 0 to 100 scale, 0 no injury, 100 complete control) | Plant response rating, Spanishneedles [5, 20] | Plant response rating, Spanishneedles [5, 21] | Plant response rating, Kochia [7, 24] | Plant response rating, P. morninglory [8, 20] | Plant response rating, P. morninglory [8, 21] | Plant response rating, P. morninglory [8, 22] | Plant response rating, C. ragweed [14, 20] | Plant response rating, C. ragweed [14, 21] | Plant response rating, Sandbur [18, 20]
